Data taken from patent US10689430B2, “Insulin receptor partial agonists” (Merck Sharp & Dohme Corp., priority 2016, dated 2020).

Target: T1, human IR(B) (Homo sapiens, UniProt P06213)
T1 construct: expressed in transfected cells; host or cells: CHO cells (membrane preparation)
Assay: Insulin receptor binding assay (SPA, 125[I]-insulin competition)
Conditions: cell membranes from CHO cells overexpressing human IR(B)
Description: Cell membranes were prepared in 50 mM Tris buffer, pH 7.8 containing 5 mM MgCl2.

T1 sequence (P06213 28-758 limits assumed): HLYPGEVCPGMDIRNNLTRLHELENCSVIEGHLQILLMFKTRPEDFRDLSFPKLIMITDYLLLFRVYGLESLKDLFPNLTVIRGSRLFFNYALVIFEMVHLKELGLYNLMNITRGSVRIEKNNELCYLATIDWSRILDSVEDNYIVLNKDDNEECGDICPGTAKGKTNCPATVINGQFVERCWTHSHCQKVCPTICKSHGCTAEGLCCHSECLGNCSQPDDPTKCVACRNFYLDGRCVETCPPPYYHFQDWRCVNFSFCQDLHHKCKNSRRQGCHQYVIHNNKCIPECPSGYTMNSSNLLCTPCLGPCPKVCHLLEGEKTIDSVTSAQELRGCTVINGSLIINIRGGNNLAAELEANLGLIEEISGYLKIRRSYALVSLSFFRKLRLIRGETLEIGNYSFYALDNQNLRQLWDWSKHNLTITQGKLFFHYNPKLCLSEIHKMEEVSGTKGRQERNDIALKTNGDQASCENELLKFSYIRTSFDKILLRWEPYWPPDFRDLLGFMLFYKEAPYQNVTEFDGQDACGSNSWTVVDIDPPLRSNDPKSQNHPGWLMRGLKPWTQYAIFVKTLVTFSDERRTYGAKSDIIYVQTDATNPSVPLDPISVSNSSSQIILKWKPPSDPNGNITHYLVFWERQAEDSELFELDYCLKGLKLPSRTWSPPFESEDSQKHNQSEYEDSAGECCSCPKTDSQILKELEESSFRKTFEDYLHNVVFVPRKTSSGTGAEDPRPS
T1 sequence (P06213 763-1382 partner limits assumed): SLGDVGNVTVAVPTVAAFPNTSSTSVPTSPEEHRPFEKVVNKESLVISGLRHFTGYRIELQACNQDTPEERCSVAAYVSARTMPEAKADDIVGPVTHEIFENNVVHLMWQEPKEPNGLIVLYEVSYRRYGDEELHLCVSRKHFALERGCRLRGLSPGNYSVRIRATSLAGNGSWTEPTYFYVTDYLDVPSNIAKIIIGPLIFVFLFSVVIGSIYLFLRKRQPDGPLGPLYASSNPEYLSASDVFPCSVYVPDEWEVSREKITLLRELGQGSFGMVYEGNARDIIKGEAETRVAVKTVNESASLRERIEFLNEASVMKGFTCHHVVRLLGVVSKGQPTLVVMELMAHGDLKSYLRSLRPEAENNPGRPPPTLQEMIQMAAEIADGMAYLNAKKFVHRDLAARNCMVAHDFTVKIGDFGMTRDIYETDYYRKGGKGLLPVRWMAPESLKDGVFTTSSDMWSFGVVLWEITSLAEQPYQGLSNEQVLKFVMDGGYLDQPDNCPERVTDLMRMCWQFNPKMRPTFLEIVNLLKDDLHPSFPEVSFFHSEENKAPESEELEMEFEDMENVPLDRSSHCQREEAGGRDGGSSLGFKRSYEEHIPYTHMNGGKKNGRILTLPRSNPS

Work on “N^6,B29, N^6,B29′-(C3-tartaric acid-C3)insulin human [Dimer 85]” yielded an IC50 of 1.8 nM.
